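In this assay, cells in 96-well plates receive the compound at five concentrations for 48 hours. Endpoints are linearly interpolated between the surrounding concentrations. GI50 is the concentration that inhibits growth by half. TGI: total growth inhibition.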
Legend:
Test in all cases: inhibition of tumour cell growth, NCI panel, 48 h
HT29 colon = system: HT29 colon
OVCAR-5 ovarian = system: OVCAR-5 ovarian
SR leukemia = system: SR leukemia
SF-295 CNS = system: SF-295 CNS
KM12 colon = system: KM12 colon
T-47D breast = system: T-47D breast
CAKI-1 renal = system: CAKI-1 renal
ACHN renal = system: ACHN renal
NCI-H522 lung = system: NCI-H522 lung
786-0 renal = system: 786-0 renal

Structure (SMILES)	GI50 (HT29 colon) [µM]	TGI (HT29 colon) [µM]	GI50 (OVCAR-5 ovarian) [µM]	TGI (OVCAR-5 ovarian) [µM]	GI50 (SR leukemia) [µM]	TGI (SR leukemia) [µM]	GI50 (SF-295 CNS) [µM]	TGI (SF-295 CNS) [µM]	GI50 (KM12 colon) [µM]	TGI (KM12 colon) [µM]	GI50 (T-47D breast) [µM]	TGI (T-47D breast) [µM]	GI50 (CAKI-1 renal) [µM]	TGI (CAKI-1 renal) [µM]	GI50 (ACHN renal) [µM]	TGI (ACHN renal) [µM]	GI50 (NCI-H522 lung) [µM]	TGI (NCI-H522 lung) [µM]	GI50 (786-0 renal) [µM]	TGI (786-0 renal) [µM]
O=C(Nc1cccc(Cl)c1Cl)c1cccc(NC2=C(Cl)C(=O)N(Cc3ccccc3)C2=O)c1	79.9	> 100	89.5	> 100	4.16	23.5	35.7	> 100	82.8	> 100	> 100	> 100	33.2	> 100	54.7	> 100	12.6	54.7	49.8	> 100
COc1ccc(/C=c2/sc3n(c2=O)C(c2ccc(OC)c(OC)c2)C2=C(N=3)c3cc(F)ccc3OC2)cc1 (stereo not drawn)	16.2	> 100	52.8	> 100	60.9	> 100	15.7	54.1	18.1	> 79.2	4.42	39.6	10.1	41.7	19.3	65.7	51.8	> 100	42.1	> 100
CC(=O)O[C@@H]1C[C@]2(C(C)C)O[C@@]1(C)[C@@H]1CCC(C)=C1[C@@H]2OC(=O)/C=C/c1ccccc1	30.6	> 100	> 100	> 100	31.8	> 100	38.6	> 100	40	> 100	19.7	> 100	13	> 100	4.49	> 100	20.7	> 100	84.3	> 100
NC(=O)C(=CNc1nc(-c2ccc(Cl)c(Cl)c2)cs1)C(N)=O	> 100	> 100	> 100	> 100	38.7	> 100	37.1	> 100	> 100	> 100	> 100	> 100	25.3	> 100	> 100	> 100	11.8	> 100	> 100	> 100
Cc1ccc(Nc2nc(N)c(C(=O)c3ccc(C#N)cc3)s2)cc1	0.25	> 90.2	2.98	> 100	0.0544	> 100	0.328	37.7	0.338	> 87.1	0.384	> 100	0.402	25	0.587	> 80.5	0.221		0.529	> 49.8
O=C(O)c1cc(O)c2c(c1)C(C1c3cc(C(=O)O)cc(O)c3C(=O)c3c(OC4OC(CO)C(O)C(O)C4O)cccc31)c1cccc(OC3OC(CO)C(O)C(O)C3O)c1C2=O (stereo not drawn)	> 100	> 100	> 100	> 100	> 100	> 100	> 100	> 100	> 100	> 100	> 100	> 100	> 100	> 100	> 100	> 100	> 100	> 100	> 100	> 100
O=C(N/N=C\c1cc(Br)ccc1O)c1ccncc1	5.7	> 100	3.76	> 100	2.45	> 100	3.47	> 100	1.97	> 100	2.19	62.5	1.04	> 100	2.37	> 100	2.17	19.8	2.46	> 100
O=c1[nH]c2cc(Cl)ccc2n1C1CCN(CCCC(c2ccc(F)cc2)c2ccc(F)cc2)CC1	0.766	2.16	1.74	3.43	2.25	8.36			1.68	3.27	1.83	3.79	0.488	1.97	1.54	2.87	1.82	3.64	1.46	2.79
C#C[C@]1(O)CC[C@H]2[C@@H]3CC=C4c5sc(Nc6ccccc6)nc5CC[C@]4(C)[C@H]3CC[C@@]21C	1.81	6.68	2.44	9.68	0.623	> 100	0.244	0.649	2.66	12.7	2.05	6.94	1.64	4.41			2.27	6.26	0.655	2.12
COC(COC(=O)N1CCN(C=O)CC1)C1=C(N2CC2)C(=O)C(C)=C(N2CC2)C1=O (stereo not drawn)		0.999		8.64		< 0.011		4.55		2.79		22.4		3.6		0.424		0.26		0.43
COc1ccc(CNc2c3ccccc3nc3ccccc23)cc1OC	1.71	7.85	2.56	11	1.34	7.2	2.19	7.2	3.65	15.5	3.43	14.1	1.87	6.33	1.39	7.94	1.55	4.15	2.78	12.1
CCN(CC)CC(C)(C)C(=O)/C=C/c1ccc(Cl)c(Cl)c1			1.65	3.49	1.75	8.91	1.74	3.22	1.67	3.28	1.52	4.03	1.35	2.74	1.61	3.09	1.71	3.2	1.62	3.04
O=C(CN(C1CCCCC1)C1CCCCC1)Nc1ccc(S(=O)(=O)c2ccc(NC(=O)CN(C3CCCCC3)C3CCCCC3)cc2)cc1	0.39	1.44	1.13	2.52	0.224	1.52	1.5	2.96	0.585	2.05	1.15	3.74	1.14	2.35	1.17	2.4	0.394	1.24	0.941	2.39
CCCS(=O)(=O)Nc1ccc(Nc2c3ccccc3nc3ccccc23)c(OC)c1		7.16		23.6		0.85		8.31		14.7		20.5		13.7		4.02		5.33		3.49
Cc1c[n+](Cc2ccc3ccccc3c2)cn1Cc1ccc2ccccc2c1	1.07	2.53	1.81	3.95	1.46	3.58	1.95	5.56	1.65	3.1	0.371	2.75			5.41	19.4	1.41	3.05	1.71	3.63
N#CC1Nc2ccccc2[C@@H](O)C1O (stereo partly drawn)		> 100		> 100		> 100		> 100		> 100		> 100		> 100		> 100				> 100
CC(=O)Oc1ccc(Nc2c3ccccc3nc3ccccc23)cc1	1.1	3.53	2.08	6.75	0.355	> 100	0.914	7.94	1.88	10.5	1.72	7.23	1.21	12.7	0.382	2.02			1.89	6.4
CCOC(=O)C1=C(C)N(N)C(=S)NC1c1ccc(C)cc1 (stereo not drawn)	26	> 100	15.7	> 100	28.3	> 100	36.9	> 100	64.4	> 100	23.1	> 100			22.6	> 100	18.2	> 100	> 100	> 100
O/N=C\c1c(O)ccc2ccccc12		> 100		> 100		82.1		> 100		> 100		> 100		> 100		70.1				> 100
O=C(CCCN1CC=C(n2c(=O)[nH]c3ccccc32)CC1)c1ccc(F)cc1	27.6	> 100	94.1	> 100	29.6	89.1			30.7	> 100	19.7	73.6	21.7	72.5	45.6	> 100	65.1	> 100	29.3	> 100

Source: PubChem BioAssay (NCI)
